Test results as given in ChEMBL document CHEMBL3351916, “Synthesis and cytotoxic evaluation of novel ester-triazole-linked triterpenoid-AZT conjugates” (Bioorg Med Chem Lett, 2014).

How the values were obtained:
[1] = tested on: KB; test: Cytotoxicity against human KB cells; type: functional, cell-based
[2] = tested on: HepG2; test: Cytotoxicity against human HepG2 cells; type: functional, cell-based

| Compound | IC50 [1] | IC50 [2] |
| --- | --- | --- |
| C#CCOC(=O)[C@]12CC[C@@H](C(=C)C)[C@@H]1[C@H]1CC[C@@H]3[C@@]4(C)CC[C@H](OCCCC(=O)O)[C@H](C)[C@@H]4CC[C@@]3(C)[C@]1(C)CC2 | 9.9 µM | 27.3 µM |
| C=C(C)[C@@H]1CC[C@]2(C(=O)O)CC[C@]3(C)[C@H](CC[C@@H]4[C@@]5(C)CCC(=O)[C@H](C)[C@@H]5CC[C@]43C)[C@@H]12 | 7.7 µM | 11.2 µM |
| C=C(C)[C@@H]1CC[C@]2(C(=O)OCc3cn([C@H]4C[C@H](n5cc(C)c(=O)[nH]c5=O)O[C@@H]4CO)nn3)CC[C@]3(C)[C@H](CC[C@@H]4[C@@]5(C)CC[C@H](OCCCC(=O)O)[C@H](C)[C@@H]5CC[C@]43C)[C@@H]12 | > 148 µM | > 148 µM |
| Cc1cn([C@H]2C[C@H](n3cc(COC(=O)[C@]45CCC(C)(C)C[C@H]4C4=CC[C@@H]6[C@@]7(C)CC[C@H](O)C(C)(C)[C@@H]7CC[C@@]6(C)[C@]4(C)CC5)nn3)[C@@H](CO)O2)c(=O)[nH]c1=O | 6.3 µM | 7.4 µM |
| C=C(C)[C@@H]1CC[C@]2(C(=O)O)CC[C@]3(C)[C@H](C[C@@H](O)[C@@H]4[C@@]5(C)CC[C@@H](O)[C@@](C)(C(=O)O)[C@@H]5CC[C@]43C)[C@@H]12 | > 255 µM | > 255 µM |
| CC1(C)CC[C@]2(C(=O)O)CC[C@]3(C)C(=CC[C@@H]4[C@@]5(C)CC[C@H](O)C(C)(C)[C@@H]5CC[C@]43C)[C@@H]2C1 [OLEANOLIC_ACID] | > 280 µM | > 280 µM |
| Cc1cn([C@H]2C[C@H](n3cc(COC(=O)[C@]45CC[C@@H](C)[C@H](C)[C@H]4C4=CC[C@@H]6[C@@]7(C)CC[C@H](O)C(C)(C)[C@@H]7CC[C@@]6(C)[C@]4(C)CC5)nn3)[C@@H](CO)O2)c(=O)[nH]c1=O | 28.5 µM | 34 µM |
| C=C(C)[C@@H]1CC[C@]2(C(=O)OCc3cn([C@H]4C[C@H](n5cc(C)c(=O)[nH]c5=O)O[C@@H]4CO)nn3)CC[C@]3(C)[C@H](CC[C@@H]4[C@@]5(C)CC[C@H](OC(=O)CCC(=O)O)C(C)(C)[C@@H]5CC[C@]43C)[C@@H]12 | 24.7 µM | 20.6 µM |
| C#CCOC(=O)[C@]12CC[C@@H](C(=C)C)[C@@H]1[C@H]1C[C@@H](O)[C@@H]3[C@@]4(C)CCC(=O)[C@@H](C)[C@@H]4CC[C@@]3(C)[C@]1(C)CC2 | 21.9 µM | 39.6 µM |
| C=C(C)[C@@H]1CC[C@]2(C(=O)OCc3cn([C@H]4C[C@H](n5cc(C)c(=O)[nH]c5=O)O[C@@H]4CO)nn3)CC[C@]3(C)[C@H](CC[C@@H]4[C@@]5(C)CC[C@H](O)C(C)(C)[C@@H]5CC[C@]43C)[C@@H]12 | 5.9 µM | 7 µM |
| C#CCOC(=O)[C@]12CC[C@@H](C(=C)C)[C@@H]1[C@H]1CC[C@@H]3[C@@]4(C)CC[C@H](OC(=O)CC(C)CC(=O)O)C(C)(C)[C@@H]4CC[C@@]3(C)[C@]1(C)CC2 (stereo partly specified) | 12.5 µM | 129 µM |
| C#CCOC(=O)[C@]12CCC(C)(C)C[C@H]1C1=CC[C@@H]3[C@@]4(C)CC[C@H](O)C(C)(C)[C@@H]4CC[C@@]3(C)[C@]1(C)CC2 [3BETA-HYDROXY-OLEN-12-EN-28-PROPARGYLATE] | 38.4 µM | > 259 µM |
| C#CCOC(=O)[C@]12CC[C@@H](C(=C)C)[C@@H]1[C@H]1CC[C@@H]3[C@@]4(C)CCC(=O)[C@H](C)[C@@H]4CC[C@@]3(C)[C@]1(C)CC2 | > 267 µM | > 267 µM |
| Cc1cn([C@H]2C[C@H](N=[N+]=[N-])[C@@H](CO)O2)c(=O)[nH]c1=O [ZIDOVUDINE] | > 479 µM | > 479 µM |
| C=C(C)[C@@H]1CC[C@]2(C(=O)O)CC[C@]3(C)[C@H](CC[C@@H]4[C@@]5(C)CC[C@H](O)C(C)(C)[C@@H]5CC[C@]43C)[C@@H]12 [BETULINIC ACID] | 27.5 µM | 23.9 µM |
| Cc1c2ccncc2c(C)c2c1[nH]c1ccccc12 [ELLIPTECINE] | 1.2 µM | 1.2 µM |
| C#CCOC(=O)[C@]12CC[C@@H](C(=C)C)[C@@H]1[C@H]1CC[C@@H]3[C@@]4(C)CC[C@H](O)C(C)(C)[C@@H]4CC[C@@]3(C)[C@]1(C)CC2 | > 259 µM | 114 µM |

| Compound | IC50 [1] | IC50 [2] |
| --- | --- | --- |
| C=C(C)[C@@H]1CC[C@]2(C(=O)OCc3cn([C@H]4C[C@H](n5cc(C)c(=O)[nH]c5=O)O[C@@H]4CO)nn3)CC[C@]3(C)[C@H](CC(=O)[C@@H]4[C@@]5(C)CCC(=O)[C@H](C)[C@@H]5CC[C@]43C)[C@@H]12 | > 168 µM | > 168 µM |
| C=C(C)[C@@H]1CC[C@]2(C(=O)O)CC[C@]3(C)[C@H](CC[C@@H]4[C@@]5(C)CC[C@@H](O)[C@@](C)(C(=O)O)[C@@H]5CC[C@]43C)[C@@H]12 | 110 µM | 223 µM |
| C#CCOC(=O)[C@]12CC[C@@H](C(=C)C)[C@@H]1[C@H]1CC[C@@H]3[C@@]4(C)CC[C@H](OC(=O)CCC(=O)O)[C@H](C)[C@@H]4CC[C@@]3(C)[C@]1(C)CC2 | 10.6 µM | 11.4 µM |
| C#CCOC(=O)[C@]12CC[C@@H](C(=C)C)[C@@H]1[C@H]1CC(=O)[C@@H]3[C@@]4(C)CCC(=O)[C@H](C)[C@@H]4CC[C@@]3(C)[C@]1(C)CC2 | 63.9 µM | 59.5 µM |
| C=C(C)[C@@H]1CC[C@]2(C(=O)OCc3cn([C@H]4C[C@H](n5cc(C)c(=O)[nH]c5=O)O[C@@H]4CO)nn3)CC[C@]3(C)[C@H](CC[C@@H]4[C@@]5(C)CC[C@H](OC(=O)CC(C)CC(=O)O)C(C)(C)[C@@H]5CC[C@]43C)[C@@H]12 (stereo partly specified) | 111 µM | 35.2 µM |
| C=C(C)[C@@H]1CC[C@]2(C(=O)OCc3cn([C@H]4C[C@H](n5cc(C)c(=O)[nH]c5=O)O[C@@H]4CO)nn3)CC[C@]3(C)[C@H](CC[C@@H]4[C@@]5(C)CC[C@H](O)[C@H](C)[C@@H]5CC[C@]43C)[C@@H]12 | 34 µM | 7.3 µM |
| C#CCOC(=O)[C@]12CC[C@@H](C)[C@H](C)[C@H]1C1=CC[C@@H]3[C@@]4(C)CC[C@H](O)C(C)(C)[C@@H]4CC[C@@]3(C)[C@]1(C)CC2 [3BETA-HYDROXY-URS-12-EN-28-PROPARGYLATE] | 38 µM | 36.5 µM |
| C=C(C)[C@@H]1CC[C@]2(C(=O)OCc3cn([C@H]4C[C@H](n5cc(C)c(=O)[nH]c5=O)O[C@@H]4CO)nn3)CC[C@]3(C)[C@H](C[C@@H](O)[C@@H]4[C@@]5(C)CCC(=O)[C@@H](C)[C@@H]5CC[C@]43C)[C@@H]12 | 136 µM | 8.5 µM |
| C=C(C)[C@@H]1CC[C@]2(C(=O)OCc3cn([C@H]4C[C@H](n5cc(C)c(=O)[nH]c5=O)O[C@@H]4CO)nn3)CC[C@]3(C)[C@H](CC[C@@H]4[C@@]5(C)CC[C@H](OC(=O)CCC(=O)O)[C@H](C)[C@@H]5CC[C@]43C)[C@@H]12 | 7.3 µM | 7.8 µM |
| C[C@H]1[C@H](C)CC[C@]2(C(=O)O)CC[C@]3(C)C(=CC[C@@H]4[C@@]5(C)CC[C@H](O)C(C)(C)[C@@H]5CC[C@]43C)[C@H]12 [URSOLIC ACID] | 31.5 µM | 42.9 µM |
| C#CCOC(=O)[C@]12CC[C@@H](C(=C)C)[C@@H]1[C@H]1CC[C@@H]3[C@@]4(C)CC[C@H](O)[C@H](C)[C@@H]4CC[C@@]3(C)[C@]1(C)CC2 | 40 µM | 133 µM |
| C=C(C)[C@@H]1CC[C@]2(C(=O)O)CC[C@]3(C)[C@H](C[C@@H](O)[C@@H]4[C@@]5(C)CCC(=O)[C@@H](C)[C@@H]5CC[C@]43C)[C@@H]12 | 46.8 µM | 58 µM |
| C#CCOC(=O)[C@]12CC[C@@H](C(=C)C)[C@@H]1[C@H]1CC[C@@H]3[C@@]4(C)CC[C@H](OC(=O)CCC(=O)O)C(C)(C)[C@@H]4CC[C@@]3(C)[C@]1(C)CC2 | 22.2 µM | 49.9 µM |
| C=C(C)[C@@H]1CC[C@]2(C(=O)OCc3cn([C@H]4C[C@H](n5cc(C)c(=O)[nH]c5=O)O[C@@H]4CO)nn3)CC[C@]3(C)[C@H](CC[C@@H]4[C@@]5(C)CCC(=O)[C@H](C)[C@@H]5CC[C@]43C)[C@@H]12 | > 172 µM | > 172 µM |
| C=C(C)[C@@H]1CC[C@]2(C(=O)OCc3cn([C@H]4C[C@H](n5cc(C)c(=O)[nH]c5=O)O[C@@H]4CO)nn3)CC[C@]3(C)[C@H](CC[C@@H]4[C@@]5(C)CC[C@H](OC(=O)CCCC(=O)O)C(C)(C)[C@@H]5CC[C@]43C)[C@@H]12 | 20.4 µM | 18.3 µM |
| C#CCOC(=O)[C@]12CC[C@@H](C(=C)C)[C@@H]1[C@H]1CC[C@@H]3[C@@]4(C)CC[C@H](OC(=O)CCCC(=O)O)C(C)(C)[C@@H]4CC[C@@]3(C)[C@]1(C)CC2 | 28.7 µM | 19.9 µM |
